According to patent US5089624A, “Dihydropyridine derivatives” (Yuhan Corporation, priority 1988, dated 1992):
pIC50: −log10 of the molar value.

System: spiral strips of rabbit aorta
Test: Reduction of calcium-induced contraction of K+-depolarised rabbit aorta spiral strips
Assay type: cell-based
Details: for pIC50: Oryctolagus cuniculus, molar concentration required to reduce the contractile response by 50%, 35 mM potassium, 2 mM calcium ion
Procedure: The test is performed by mounting spiral strips of rabbit aorta with one end fixed and the other attached to a force transducer. The mounted tissue is immersed in a physiological salt solution containing potassium ion at a concentration of 35 millimole and no calcium. Calcium chloride is added to the bath to give a final calcium ion concentration of 2 millimole. The change in tension caused by the resulting contraction of the tissue is noted. The bath is drained and replaced with fresh salt solution and, 45 minutes later the test is repeated with the addition of the compound being tested in the presence of salt solution and, […] The concentration of compound required to reduce the response by 50% is recorded. The anti-hypertensive activity of the compounds is also evaluated oral administration by measuring the decrease fall in blood pressure in spontaneously hypertensive rats.

Row | Structure (SMILES) | pIC50 | activity ranking in words (the smaller the concentration, the more active) (ranking by IC50 in Table 1)
1 | COC(=O)C1=C(C)NC(C)=C(C(=O)OCSC)C1c1cccc([N+](=O)[O-])c1 (stereo not drawn) [Example 1, 2,6-dimethyl-4-(3'-nitrophenyl)-1,4-dihydropyridine-3,5-dicarboxylic acid 3-methylthiomethyl ester 5-methyl ester] | 8.40 | most active compound
2 | CCOC(=O)C1=C(C)NC(C)=C(C(=O)OCSC)C1c1cccc([N+](=O)[O-])c1 (stereo not drawn) [Example 2] | 7.70 | 
3 | CSCOC(=O)C1=C(C)NC(C)=C(C(=O)OC(C)C)C1c1cccc([N+](=O)[O-])c1 (stereo not drawn) [Example 3] | 7.25 | 
4 | COC(=O)C1=C(C)NC(C)=C(C(=O)OCSC)C1c1cccc(Cl)c1Cl (stereo not drawn) [Example 5] | 7.54 | 
5 | COC(=O)C1=C(C)NC(C)=C(C(=O)OCSC)C1c1ccccc1C(F)(F)F (stereo not drawn) [Example 6] | 7.72 | 
6 | COCOC(=O)C1=C(C)NC(C)=C(C(=O)OC)C1c1cccc([N+](=O)[O-])c1 (stereo not drawn) [Example 7] | 7.38 | 
7 | COCOC(=O)C1=C(C)NC(C)=C(C(=O)OC(C)C)C1c1cccc([N+](=O)[O-])c1 (stereo not drawn) [Example 8] | 7.59 | 
8 | CCOCOC(=O)C1=C(C)NC(C)=C(C(=O)OC)C1c1cccc([N+](=O)[O-])c1 (stereo not drawn) [Example 9] | 7.54 | 
9 | COCOC(=O)C1=C(C)NC(C)=C(C(=O)OC)C1c1cccc(Cl)c1Cl (stereo not drawn) [Example 10] | 7.70 | 

Now from value to molecule, other results behind:

Row | pIC50 | Structure (SMILES) | activity ranking in words (the smaller the concentration, the more active) (ranking by IC50 in Table 1)
10 | 7.77 | CCSCOC(=O)C1=C(C)NC(C)=C(C(=O)OC)C1c1cccc([N+](=O)[O-])c1 (stereo not drawn) [Example 4] | 
11 | 7.10 | COC(=O)C1=C(C)NC(C)=C(C(=O)OCSC)C1c1cccc2nonc12 (stereo not drawn) [Example 11] | 
12 | 7.96 | COC(=O)C1=C(C)NC(C)=C(C(=O)OCSC)C1c1ccccc1[N+](=O)[O-] (stereo not drawn) [Example 12] | 
13 | 6.85 | COC(=O)C1=C(C)NC(C)=C(C(=O)OCSc2ccccc2)C1c1cccc([N+](=O)[O-])c1 (stereo not drawn) [Example 13, 2,6-dimethyl-4-(3-nitrophenyl)-1,4-dihydropyridine-3,5-dicarboxylic acid 3-phenylthiomethyl, 5-methylester] | 
14 | 7.46 | COC(=O)C1=C(C)NC(C)=C(C(=O)OCCN(C)Cc2ccccc2)C1c1cccc([N+](=O)[O-])c1 (stereo not drawn) [control, Nicardipine, reference compound] | 
